Assay results as given in patent US20250197248A1, “WATER TREATMENT SYSTEM” (KEMIRA OYJ, priority 2022, published 2025).

Assays:
[1] = Residual PFA over time in dosed wastewater samples (CHEMetrics test kit); type: physicochemical; conditions: doses 0.5, 1 and 2 ppm; S2 samples versus S1 samples; FIG. 5
Experimental: Varying doses of PFA (0.5 ppm, 1 ppm, and 2 ppm) were dosed into S1 and S2 wastewater samples as described in Example 1. Residual levels of PFA were measured using a CHEMetrics test kit for PAA with vacuum ampules detecting in the 0-5 ppm range (Maffettone, 2020). PFA values were obtained by multiplying the PAA results by 0.82 (Maffettone, 2020). The factor of 0.82 for conversion of PAA to PFA corresponds to the molecular weight ratio of PFA (62.02 g/mol) to PAA (76.05 g/mol). Due to the fast degradation of PFA, residual PFA concentrations were determined immediately following the sample collection.

fecal coliform = assay: Disinfection efficacy of PFA in wastewater samples, colony count (USEPA method 10029); type: cell-based; conditions: S2 (50% secondary + 50% primary-only wastewater, 30 min contact) versus S1 (secondary-treated wastewater, 90 min contact); FIG. 4A
Experimental: (§1) The disinfection efficacy of PFA against fecal coliform and E. coli was assessed in wastewater (WW) that had undergone secondary treatment (S1), and in a mixed wastewater sample comprising 50% wastewater that had undergone secondary treatment and 50% wastewater that had undergone primary treatment without secondary treatment (S2). The S2 sample would have inevitably contained higher levels of TSS, increased organic matter and increased microbial content.
(§2) WW samples were collected and stored at 4° C. […] until use (within 1 to 3 days). A PFA solution was prepared immediately prior to use by mixing 2.5 mL of 35% hydrogen peroxide with 2.5 mL of DEX®-A375 (a mixture of formic and sulfuric acids). The resultant mixture was incubated for 5 minutes at 4° C. and subsequently for 25 minutes at room temperature to complete formation of the 9.5% PFA solution. The 9.5% PFA solution was diluted to 950 mg/L by adding 0.2 mL of the 9.5% PFA solution to 19.8 mL distilled water.
(§3) WW samples were dosed with PFA to determine efficacy after set contact times. A shorter 30 minute contact time was used for the S2 samples to emulate the shorter contact times that would occur in a CSO event when the volume and rate of flow of water through the WW treatment system is increased. […] After incubation, the number of colonies was counted. […]

E. coli = assay: as above; type: cell-based; conditions: S2 (50% secondary + 50% primary-only wastewater, 30 min contact) versus S1 (secondary-treated wastewater, 90 min contact); FIG. 4B
Experimental: as §1, §2, §3

O=COO [PFA, performic acid]
residual PFA levels over time (degradation in wastewater) [1]: decrease more rapidly over time in S2 samples than in S1 samples
disinfection efficacy against fecal coliform (fecal coliform): significantly reduced
disinfection efficacy against E. coli (E. coli): significantly reduced
